Three compounds from US20040260721A1, “Methods and systems for creation of a coherence database” (priority 2003, published 2004) can be followed below.

In one data set the test system is Saccharomyces cerevisiae. The data set can be described thus: Biochemical and gene expression profiling with pathway analysis of yeast treated with fungicidal drugs. In kind it is cell-based. The following applies: inhibitory dose; three replicate samples per drug; single harvest timepoint. How it is done: An experiment was performed to attempt to characterize four fungicidal drugs: Amphoteracin B, Ketaconazole, Fluconazole, and Posaconazole. Yeast samples (Saccharomyces cerevisiae) were treated with an inhibitory dose of each drug, using three replicate samples per drug, and harvested at a single timepoint. Biochemical profiling and gene expression profiling data were gathered on each yeast sample, and summarized and related to KEGG as described in Example 6.

A further data set concerns liver. The data set can be described thus: Biochemical profiling (LC/MS) of livers from rats dosed with acetaminophen. The data set is classed as in vivo. The following applies: rat liver. How it is done:
Acetaminophen overdose is one of the leading causes of liver failure. In this experiment, rats were dosed with acetaminophen and livers were harvested across a time course. Two doses of acetaminophen were used (50 mg/kg and 1500 mg/kg), as well as a control group that received no acetaminophen. The harvest times were 6, 18, 24, and 48 hours. Three rats (biological replicates) were in each treatment group, wherein a treatment group is defined as each combination of dose and time. […] Still referring to FIG. 2, the information recorded in data tables 221, 223, and 224 could also be recorded in data tables 218 and 219 (time_summary_set, and tissue_summary_set), thus allowing comparison by time or tissue type.
The resulting liver samples were extracted and analyzed by biochemical profiling (BCP) using LC/MS in both positive and negative modes, yielding a biochemical profile containing intensities on more than 100 compounds. Three technical replicates of each rat liver were analyzed. […]
A summary set was created for each treatment group, and the experimental information associated with that treatment group (treatment, dosage, timepoint, baseline of comparison) was recorded in the coherence database. […] Comparing a treated group to a control group created summaries that were recorded in the treatment_summary_set data table (FIG. 2, table 217) of the coherence database schema. […]

Entries after “also recorded” stand apart in the source; their conditions may differ.

For the compound `OC(Cn1cncn1)(Cn1cncn1)c1ccc(F)cc1F` [Fluconazole], the “comparison of pathway perturbations between treatments” value in the data set on Saccharomyces cerevisiae is reported as “perturbations that were unlike those of Amphoteracin B”.
The same measure, in the same setting: as for `CC[C@@H]([C@H](C)O)n1ncn(-c2ccc(N3CCN(c4ccc(OC[C@@H]5CO[C@@](Cn6cncn6)(c6ccc(F)cc6F)C5)cc4)CC3)cc2)c1=O` [Posaconazole], the entry is “behaved most like Fluconazole; also recorded: perturbations that were unlike those of Amphoteracin B”.
For the compound `CC(=O)Nc1ccc(O)cc1` [acetaminophen], the “timepoint with most perturbed compounds (biochemical profile vs matched control)” value with liver (50 mg/kg and 1500 mg/kg, harvest at 6, 18, 24 and 48 hours) was “more compounds were perturbed at the 18 hour timepoint than any other”. Also, the “pathway showing the primary metabolic disturbance” value in the data set with liver (18 hour timepoint, pathway viewing tool (KEGG)) is on record as “nitrogen metabolism pathway was most likely the source of the primary metabolic disturbance”.
